Broadly, the IC50 is the concentration at which inhibition is half-maximal.

In assay [1] the target is Histone-lysine N-methyltransferase KMT5B (Homo sapiens, UniProt Q4FZB7). Nature of the assay: Inhibition of recombinant human 6His-(Tev)-G-SUV420H1 (69 to 335 residues) using Biotin-tagged H4K20me1 and [3H-SAM] as substrate incubated for 2 hrs by scintillation proximity assay. (In general: SPA uses beads or plates that emit light when radiolabelled molecules are held near them.)

Assay [2] addresses Histone-lysine N-methyltransferase KMT5C (Homo sapiens, UniProt Q86Y97). Kind of assay: Inhibition of human SUV420H2 using Biotin-tagged H4K20me1 and [3H-SAM] as substrate incubated for 2 hrs by scintillation proximity assay.

Chain of Histone-lysine N-methyltransferase KMT5C (Q86Y97 whole entry): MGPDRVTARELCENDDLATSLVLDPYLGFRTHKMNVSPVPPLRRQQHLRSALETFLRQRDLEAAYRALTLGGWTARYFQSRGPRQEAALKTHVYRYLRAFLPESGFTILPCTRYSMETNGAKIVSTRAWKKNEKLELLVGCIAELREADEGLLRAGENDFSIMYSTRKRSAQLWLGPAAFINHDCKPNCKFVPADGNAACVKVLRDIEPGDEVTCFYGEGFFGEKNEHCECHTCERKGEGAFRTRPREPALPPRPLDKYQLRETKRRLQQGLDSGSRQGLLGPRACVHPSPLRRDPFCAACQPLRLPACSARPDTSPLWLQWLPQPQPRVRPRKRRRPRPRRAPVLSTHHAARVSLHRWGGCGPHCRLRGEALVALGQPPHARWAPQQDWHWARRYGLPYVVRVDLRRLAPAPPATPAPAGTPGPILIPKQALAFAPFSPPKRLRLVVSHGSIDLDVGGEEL
Chain of Histone-lysine N-methyltransferase KMT5B (Q4FZB7 whole entry, the tested form may be a part): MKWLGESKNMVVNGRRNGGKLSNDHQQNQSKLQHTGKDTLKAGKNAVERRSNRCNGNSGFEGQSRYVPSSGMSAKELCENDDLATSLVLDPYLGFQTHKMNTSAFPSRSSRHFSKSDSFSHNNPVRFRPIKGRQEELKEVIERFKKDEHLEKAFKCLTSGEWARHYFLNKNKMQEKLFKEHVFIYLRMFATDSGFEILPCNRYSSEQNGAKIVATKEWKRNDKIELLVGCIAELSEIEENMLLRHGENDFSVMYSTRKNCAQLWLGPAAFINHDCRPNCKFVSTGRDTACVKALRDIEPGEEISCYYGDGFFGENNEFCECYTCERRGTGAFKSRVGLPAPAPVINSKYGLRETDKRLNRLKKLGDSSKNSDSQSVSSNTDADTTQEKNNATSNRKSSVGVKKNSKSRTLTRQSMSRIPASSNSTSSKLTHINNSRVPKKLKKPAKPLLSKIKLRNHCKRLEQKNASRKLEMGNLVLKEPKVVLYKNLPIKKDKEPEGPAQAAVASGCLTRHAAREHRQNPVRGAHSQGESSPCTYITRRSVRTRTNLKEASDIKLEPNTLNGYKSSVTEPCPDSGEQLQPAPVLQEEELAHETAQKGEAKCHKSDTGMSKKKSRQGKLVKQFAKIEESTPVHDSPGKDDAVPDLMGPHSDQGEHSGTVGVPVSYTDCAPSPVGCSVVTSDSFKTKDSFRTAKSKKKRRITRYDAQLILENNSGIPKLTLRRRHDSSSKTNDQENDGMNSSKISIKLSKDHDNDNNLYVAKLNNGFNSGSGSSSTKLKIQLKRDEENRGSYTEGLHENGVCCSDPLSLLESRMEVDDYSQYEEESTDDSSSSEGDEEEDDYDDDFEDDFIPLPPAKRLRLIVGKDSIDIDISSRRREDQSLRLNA

In the case of `Clc1ccc2c(NC3CCCC3)ccnc2c1`, the IC50 in assay [1] was found to be 5.9 µM; in assay [2] it was 4800 nM.

As to `Clc1cc2nccc(NC3CCCC3)c2cc1Cl`, the IC50 in assay [1] turned out to be 0.59 µM; in assay [2], 1200 nM.

(Values after ChEMBL document CHEMBL5649167, “The SUV4-20 inhibitor A-196 verifies a role for epigenetics in genomic integrity” (Nat Chem Biol, 2017).)
